Test results reported in patent US10195197B2, “Combination therapy with glutaminase inhibitors” (Calithera Biosciences, Inc., priority 2016, dated 2019).

Tested on: JIMT-1 tumors
Assay: JIMT-1 xenograft model, antitumor efficacy (in vivo TNBC model)
Conditions: single agent paclitaxel, five doses at 10 mg/kg every other day at start of study; initial regression followed by rapid regrowth; P=0.0002
Experimental: In the JIMT-1 xenograft model, the antitumor efficacy was evaluated by treating established tumors (125 mm^3 at the start of dosing) with CB-839 both as a single agent and in combination with paclitaxel, a standard-of-care chemotherapeutic agent for the treatment of TNBC. The regimen for paclitaxel (five doses at 10 mg/kg delivered every other day at the start of study) was chosen to provide suboptimal efficacy to ensure a window to evaluate the potential impact of combination treatment.

CC(=O)O[C@H]1C(=O)[C@@]2(C)[C@H]([C@H](OC(=O)c3ccccc3)[C@]3(O)C[C@H](OC(=O)[C@H](O)[C@@H](NC(=O)c4ccccc4)c4ccccc4)C(C)=C1C3(C)C)[C@]1(OC(C)=O)CO[C@@H]1C[C@@H]2O [paclitaxel]
TGI relative to vehicle control at the end of study: 73%
